Read-outs that look alike come from different tables or passages of the source.
What was measured:
[1] = Recovery of steroid glycoside and free steroid from intestinal contents and tissues after intragastric administration; format: in vivo, Sprague-Dawley rats; conditions: rat; for site of absorption of the free steroid: free steroid given orally (control experiments, FIGURE 4)
Protocol: Male, Sprague-Dawley rats (ca 250 g) were maintained on laboratory rat chow and water ad lib. These rats were fasted overnight (16 hr.) prior to administration of glucoside or free steroid. Water bottles were removed from the cages at least 30 min prior to drug administration. Prednisolone glucoside, 2, (7.5 mg) or dexamethasone glucoside, 1, (7.5 mg) was administered by gastric intubation as a solution (0.5 mL) of water/95% ethanol (3:1). Prednisolone, 4, (5.25 mg) or dexamethasone, 3, (5.1 mg) was administered as a solution (0.5 mL) of water/95% ethanol (1:1). After the appropriate interval of time -3, 4, 5 or 6 hr.- the animals were sacrificed by carbon dioxide anesthesia followed by thoractomy. The small intestine and cecum were removed and cut into segments. Contents were separated from the tissues by rinsing the segments with cold, 0.9% saline (5.0 mL). The contents were immediately diluted to 30 mL with methanol. The tissues were suspended in 0.01 M KH2P04 (5.0 mL). Then an internal standard, either prednisolone, 4, or dexamethasone, 3, depending on the experimental steroid, was added to all the samples. Both the contents and tissues were then homogenized with a Polytron Homogenizer (Brinkman Inst. Co.) at med. speed for 1-2 min. The contents were then diluted to 40 mL total volume with methanol. The tissues were diluted to 25 mL total volume with methanol. All the samples were centrifuged (5,000 g, 15 min) and then the supernatant solutions were passed through membrane filters (0.45 micrometers, Versapor 800). The samples (1.4 mL) were then diluted with 0.01 M KH2PO4 (0.6 mL) and 20 microliters of the resulting solution injected directly onto the HPLC column for analysis.

physchem = format: physicochemical
Protocol: The partitioning of prodrugs and free steroids between n-octanol and an aqueous phase (0.01 phosphate buffer, pH 7.0) were determined at 37 °C. Both octanol and buffer were saturated with the relevant aqueous or organic phase before use. […] The intitial concentration of steroid was 10 mM dissolved in the organic phase. The amount of glycoside and free steroid in the aqueous phase at equilibrium was measured spectrophotometrically at 239 nm for the dexamethasone and fludrocortisone compounds and 242 nm for the prednisolone and hydrocortisone compounds. The concentration of glycoside or free steroid in the octanol phase was determined by difference.

[2] = Rate of hydrolysis in homogenized distal small intestine contents; conditions: for Sp. act. / Tot. act.: DSI contents, 1.0 mM prodrug, 37 C, release of free steroid by HPLC
Source text: (§1) (The entire small intestine was divided into two, equal length segments to give PSI and DSI.) Gastrointestinal contents were obtained from male, Sprague-Dawley rats (300-400 g) which had been maintained on a stock diet (Purina rat chow) and water ad libitum. The intestinal contents of each section were pooled from four animals for each assay. […] Following removal, the contents were quickly weighed, then diluted to 100 milliliters (stomach, PSI, and DSI) or 200 milliliters (cecum) with cold 0.01 M phosphate buffer, pH 7.0. […] Homogenates were then stored on ice (ca 30 min). […] The reaction was run at 37 °C in a shaking water bath. The reaction was stopped after 10, 20, or 30 min by addition of 0.2 N NaOH (0.25 milliliters).
(§2) Stomach and PSI contents were diluted to 50 mL with 0.01 M phosphate buffer, pH 7.0, DSI contents to 25 mL, and cecal contents to 200 mL, prior to homogenization. The homogenates (2.1 mL of stomach, PSI, and DSI and 1.7 mL of cecum) were added to the appropriate substrate solution (0.01 M phosphate buffer, pH 7.0) to give 1.0 mM substrate in a total volume of 2.5 mL. At various times up to 30 min, aliquots (0.3 mL) were removed and quenched with MeOH (4.7 mL). After centrifugation (5,000 g, 10 min), the samples were diluted (1:1) with 0.01 M KH2PO4 and 20 microliters of the resulting solution was injected directly onto the HPLC column for analysis.

[3] = Rate of hydrolysis in homogenized cecal contents; conditions: cecal contents; 1.0 mM prodrug, 37 C; release of free steroid by HPLC
Source text: as §1, §2

[4] = Rate of hydrolysis in homogenized proximal small intestine contents; conditions: PSI contents; 1.0 mM prodrug, 37 C; release of free steroid by HPLC
[5] = KM(app) and Vmax determinations (Eadie-Hofstee plots); format: in vitro ADME, rat; conditions: prodrug 0.5-48 micromolar, 0.8 mL cecal homogenate, 15 min, 37 C, release of free steroid by HPLC
Protocol: KM(app) and VMax Determinations. The KM(app)-Vmax for the hydrolysis of p-NP-glc and p-NP-gal were determined using pooled cecal homogenates (200 mL) as described above. A range of substrate (56-1000 micromolar; final volume 2.25 mL) concentrations, spanning their apparent KM, was used for each reaction. The amount of cecal homogenate used was 0.04 mL. Velocities were obtained, in duplicate, at 37 °C in a shaking water bath and the reaction stopped by addition of 0.2 N NaOH (0.25 mL) after 15 min. Release of p-nitrophenol was measured spectrophotometrically at 403 nm. Eadie-Hofstee plots were used to determine the KM(app) (micromolar) and Vmax (micromolar/min/g) of both reactions. The wet weight (g), measured immediately after removal and pooling, was used throughout.
Again, cecal contents from four rats were pooled, weighed, diluted (100 mL, 0.01 M phosphate buffer, pH 7.0) and homogenized. A range of substrate concentrations (0.5-48 micromolar, final volume 2.5 mL) spanning the apparent KM, was used for each reaction. The amount of cecal homogenate used was 0.8 mL. Reactions were run, in duplicate, at 37°C in a shaking water bath. After 15 min, the reactions were stopped by removing aliquots (0.3 mL) and quenching them with MeOH (4.7 mL). […] Again, Eadie-Hofstee plots were used to determine the KM(app) and VMax.

[6] = Rate of hydrolysis in homogenized stomach contents; conditions: 1.0 mM prodrug, 37 C, release of free steroid by HPLC
[7] = 0.01 m phosphate buffer, pH 7, Log P

Structure (SMILES)	Sp. act. [2] [nmoles/min/g wet weight]	Tot. act. [2] [µmol/min]	Sp. act. [3] [nmoles/min/g wet weight]	Tot. act. [3] [µmol/min]	Sp. act. [4] [nmoles/min/g wet weight]	Tot. act. [4] [µmol/min]	Sp. act. [6] [nmoles/min/g wet weight]	Tot. act. [6] [µmol/min]	further results
C[C@]12C=CC(=O)C=C1CC[C@@H]1[C@@H]2[C@@H](O)C[C@@]2(C)[C@H]1CC[C@]2(O)C(=O)CO [Compound 4, 11 beta, 17 alpha-21-Trihydroxy-3, 20-dioxpregna-1,4-diene, reference compound]	–	–	–	–	–	–	–	–	site of absorption of the free steroid [1]: absorbed almost completely from the small intestine; site of absorption of the free steroid ([1]; listed as prednisolone): absorbed almost exclusively from the small intestine; part of the oral dose of free steroid that reached the cecum ([1]; in vivo, po): less than 1%; free steroid recovered in the cecum, as equivalent of the administered dose ([1]; in vivo, po, 5 h): 11%; logD at 0.5 h (physchem; n-octanol / 0.01 M phosphate buffer pH 7.0, 37 C, agitated 30 min, read-out: Log P): 1.55
C[C@]12CCC(=O)C=C1CC[C@@H]1[C@@H]2[C@@H](O)C[C@@]2(C)[C@H]1CC[C@]2(O)C(=O)CO [Compound 6, 11 beta, 17 alpha-21-Trihydroxy-3, 20-dioxopregna-4-ene]	–	–	–	–	–	–	–	–	Log P (physchem; n-octanol / 0.01 M phosphate buffer pH 7.0, 37 C, agitated 30 min): 1.54
C[C@]12CCC(=O)C=C1CC[C@H]1[C@@H]3CC[C@](O)(C(=O)CO)[C@@]3(C)C[C@H](O)[C@@]12F [Compound 8, 9 alpha-Fluoro-11 beta, 17 alpha-21-trihydroxy-3, 20-dioxopregna-4-ene]	–	–	–	–	–	–	–	–	logD at 0.5 h (physchem; [7]): 1.73
CC12C=CC(=O)C=C1CCC1C2C(O)CC2(C)C1CCC2(O)C(=O)COC1OC(CO)C(O)C(O)C1O [Compound 10, 11 beta, 17 alpha-dihydroxy-3,20-dioxopregna-l,4-dien-21-yl beta-D-galactopyranoside]	122	1.72	665	13	49.3	0.23	12.1	0.19	Km ([5]; listed as galactoside 10): 20 µM; Vmax ([5]; listed as galactoside 10): 10.3 µM/min/g
CC12CCC(=O)C=C1CCC1C2C(O)CC2(C)C1CCC2(O)C(=O)COC1OC(CO)C(O)C(O)C1O [Compound 11, 11 beta, 17 alpha-Dihydroxy-3, 20-dioxopregna-4-en-21-yl beta-D-galactopyranoside]	110	1.6	592	11.9	42.5	0.02	12.5	0.02	Km ([5]; listed as galactoside 11): 16.7 µM; Vmax ([5]; listed as galactoside 11): 10.2 µM/min/g
CC12CCC(=O)C=C1CCC1C3CCC(O)(C(=O)COC4OC(CO)C(O)C(O)C4O)C3(C)CC(O)C12F [Compound 12, 9 alpha-Fluoro-11 beta, 17 alpha-dihydroxy-3, 20-dioxopregna-4-en-21-yl beta-D-galactopyranoside]	56.7	0.80	642	12.9	12.5	0.01	7.0	0.01	Km ([5]; listed as galactoside 12): 33.3 µM; Vmax ([5]; listed as galactoside 12): 20.6 µM/min/g
CC12C=CC(=O)C=C1CCC1C2C(O)CC2(C)C1CCC2(O)C(=O)COC1OC(CO)C(OC2OC(CO)C(O)C(O)C2O)C(O)C1O [Compound 13, 11 beta, 17 alpha-Dihydroxy-3, 20-dioxopregna-1,4-diene-21-yl beta-D-cellbioside]	32.5	0.64	109	2.2	26.0	0.11	7.5	0.01	hydrolysis by DSI contents, comparison in words ([2]; homogenates of DSI contents): only half that of glucoside 2 and one-fourth that of galactoside 10; logD at 0.5 h (physchem; [7]): -0.56
